{"source": "patent US20140221490A1", "about": "“METHODS OF TREATING PAIN” (Hospira, Inc., priority 2011, published 2014)", "key": {"[1]": {"system": "patients after orthopedic surgery", "assay": "Orthopedic surgery trial: safety (adverse events)", "format": "in vivo, human", "procedure": "(§1) The diclofenac formulation was Dyloject™. […] Adverse events (adverse effects) were recorded between surgery and randomization, not just after baseline, in order to distinguish treatment-emergent adverse events.\nThose who remained at the site longer assessed their pain every 3 hours until discharged. […] Adverse events (AEs) were recorded between surgery and randomization, not just after baseline, in order to distinguish treatment-emergent AEs."}, "[2]": {"system": "acute moderate to severe pain after orthopedic surgery", "assay": "Multiple-dose randomized double-blind active- and placebo-controlled trial after orthopedic surgery: efficacy (SPID, pain relief, rescue morphine, patient global evaluation)", "format": "in vivo, human", "procedure": "Patients were randomly assigned to diclofenac, ketorolac, or placebo (2:1:1 ratio).\nRandomization was stratified by risk group at baseline. The groups were high-risk, non-high-risk, or higher-weight, which was greater than 210 lbs., or 95 kg. Randomization was also stratified by anticipated stay between a long stay, which was longer than 24 hours, versus a shorter stay. The high-risk patients weighed less than 110 lbs.\nas §1\nPatients were encouraged to wait at least 30 minutes after study drug initiation to request morphine.\nPatients assessed their pain at baseline and at specified time points through the next 24 hours. Those who remained at the site longer assessed their pain every three hours until discharged. Patients returned for follow-up 5-9 days after baseline, and they received a follow-up telephone call 30-37 days after baseline.\nEfficacy analyses were conducted using Statistical Analysis Software®, and unless otherwise noted refer to the intent-to-treat population. The analysis of area under the pain intensity difference curve, pain intensity difference, area under the pain relief curve, patient global evaluation, and amount of rescue medication were based on analysis of covariance (ANCOVA) models, with treatment and center as factors and baseline pain as a covariate. Confidence intervals were based on the pooled standard deviation obtained from an ANCOVA model. Treatment differences were tested with linear contrasts.\nAll testing of statistical significance was 2-sided unless the test performed was inherently 1-sided. […] The area under the pain relief curve was analyzed similarly.\nThe proportion of patients attaining at least 30% reduction in pain intensity and the frequency of rescue medication use were analyzed with Cochran-Mantel-Haenszel tests, with center as a stratification variable.\nFor area under the curve calculations, evaluations after the administration of rescue medication or after withdrawal due to adverse events (adverse effects) or lack of efficacy were imputed in accordance with prespecified rules. For post hoc analyses of pain intensity, an even more conservative and simplified set of imputation rules was applied.\nThis was a multicenter, multiple-dose, multiple-day, randomized, double-blind, active- and placebo-controlled, parallel-group study.\nAssignments were made according to a computer-generated random-number code. Randomization was also stratified by risk cohort (high-risk, non-high-risk, or high-weight [≧95 kg]) at baseline (see FIG. 10), and by anticipated long stay (>24 hours) versus shorter stay, resulting in six strata within the randomization schedule.\nPatients in all treatment groups received a bolus IV injection every 6 hours until discharge. […] All study drugs were blinded to the investigator and the patient; dose levels of the individual study treatments were not blinded.\nPatients were encouraged to wait at least 30 minutes after study drug initiation to request morphine, to allow primary study drug to begin to exert analgesic effects but were never denied.\nThe primary efficacy measure was the sum of pain intensity differences (SPID) over five intervals: 0-24, 0-48, 0-72, 0-96, and 0-120 hours which was calculated by summing the difference in pain intensity (by a 0-100 visual analog scale) from baseline at designated timepoints."}, "[3]": {"conditions": "diclofenac n = 145, ketorolac n = 60"}}, "note": "Where “and” joins values, the source holds several entries; their conditions need not be identical. Identical values can stand only once. Entries after “also recorded” stand apart in the source; their conditions may differ.", "data": [{"smiles": "O=C(c1ccccc1)c1ccc2n1CCC2C(=O)O", "note": "(stereo not drawn) [Ketorolac, ketorolac tromethamine]", "values": [{"measurement": "Acute Renal Failure/Renal Insufficiency", "setting": "[1]; [3]", "value": "0 n (%)"}, {"measurement": "Acute Tubular Necrosis", "setting": "[1]; [3]", "value": "0 n (%)"}, {"measurement": "Anemia", "setting": "[1]; [3]", "value": "9 (15.0%) n (%)"}, {"measurement": "Blood creatine phosphokinase (CPK) increase", "setting": "[1]; [3]", "value": "8 (13.3%) n (%)"}, {"measurement": "Constipation", "setting": "[1]; [3]", "value": "6 (10.0%) n (%)"}, {"measurement": "Contusion", "setting": "[1]; [3]", "value": "2 (3.3%) n (%)"}, {"measurement": "Dizziness", "setting": "[1]; [3]", "value": "5 (8.3%) n (%)"}, {"measurement": "Dysuria (burning, difficulty urinating)", "setting": "[1]; [3]", "value": "1 (1.7%) n (%)"}, {"measurement": "Epistaxis", "setting": "[1]; [3]", "value": "0 n (%)"}, {"measurement": "Fever/increase body temp.", "setting": "[1]; [3]", "value": "5 (8.3%) n (%)"}, {"measurement": "Nausea", "setting": "[1]; [3]", "value": "18 (30.0%) n (%)"}, {"measurement": "Total Bleeding related adverse events", "setting": "[1]; [3]", "value": "13 (21.7%) n (%)"}, {"measurement": "Total GI-Related Adverse Events", "setting": "[1]; [3]", "value": "24 (40.0%) n (%)"}, {"measurement": "Total Renal-Related Adverse Events", "setting": "[1]; [3]", "value": "1 (1.7%) n (%)"}, {"measurement": "Urinary Retention", "setting": "[1]; [3]", "value": "0 n (%)"}, {"measurement": "Vomiting", "setting": "[1]; [3]", "value": "6 (10.0%) n (%)"}, {"measurement": "incidence of bleeding-related adverse effects", "setting": "[1]; in vivo", "value": "23% and 22%"}, {"measurement": "serious cardiovascular event: congestive heart failure", "setting": "[1]; one of 60 patients, not considered treatment-related", "value": 1.7, "unit": "%"}, {"measurement": "total pain relief vs placebo", "setting": "[2]; 0-24, 0-48, 0-72, 0-96, 0-120 hours, P<0.0001", "value": "significantly better"}, {"measurement": "mean sum of pain intensity differences (SPID) vs placebo", "setting": "[2]; all time intervals 0-24 to 0-120 hours, P<0.0001", "value": "significantly better; also recorded: significantly greater"}, {"measurement": "patients rating their drug as “very good” or “excellent” (patient global evaluation)", "setting": "[2]; at last assessment", "value": 57.6, "unit": "%"}, {"measurement": "SPID scores vs placebo, higher-weight group", "setting": "[2]; diclofenac 50 mg, ketorolac 30 mg, all time intervals, P<0.05", "value": "better with both diclofenac 50 mg and ketorolac 30 mg compared with placebo"}, {"measurement": "patients achieving clinically meaningful pain reduction (≧30% reduction in intensity)", "setting": "[2]; dose by risk cohort, IV every 6 hours", "value": 75, "unit": "%"}, {"measurement": "amount of morphine used", "setting": "[2]; elderly patients, low dose (diclofenac 18.75 mg, ketorolac 15 mg)", "value": 14.9, "unit": "mg"}, {"measurement": "median time from administration of study drug to administration of rescue medication", "setting": "[2]; human, in vivo", "value": "137.0 min and 137 min"}, {"measurement": "time at which pain intensity difference first significantly differed from placebo (onset of analgesia)", "setting": "[2]; human, in vivo", "value": 30, "unit": "min"}, {"measurement": "total rescue morphine requirement", "setting": "[2]; over the first five days", "value": 18.1, "unit": "mg"}]}]}
